Assay results reported in ChEMBL document CHEMBL5338766, “X-ray Crystal Structure-Guided Discovery of Novel Indole Analogues as Colchicine-Binding Site Tubulin Inhibitors with Immune-Potentiating and Antitumor Effects against Melanoma” (J Med Chem, 2023).

Tests used:
[1] = Acute toxicity in C57 mouse assessed as survival rate at 80 mg/kg, po administered daily for 14 days relative to control; assay type: organism-based; settings: in vivo, time 14 day, read-out: Activity
B16-F10 [2] = assay: Antitumor immunity in C57 mouse implanted with mouse B16-F10 cells assessed as increase in CD3+ CD8+ cytotoxic T cells in tumor at 2.5 mg/kg, ip administered every day for 14 days in the presence of NP19 by flow cytometric analysis (reference value: 0.340%); assay type: functional; settings: time 14 day
HepG2 [3] = assay: Induction of apoptosis in human HepG2 cells assessed as early apoptotic cells at 5 nM incubated for 48 hrs by Annexin V-FITC/PI staining based flow cytometric analysis (reference value: 7.01 %); assay type: functional
HepG2 [4] = assay: Cell cycle arrest in human HepG2 cells assessed as accumulation of cells at G1 phase at 1 nM incubated for 48 hrs by RNaseA/PI staining based flow cytometric analysis (reference value: 56.11%); assay type: functional
[5] = Toxicity in C57 mouse implanted with mouse B16-F10 cells assessed as pathological changes in liver at 2.5 mg/kg, ip administered every day for 14 days in the presence of NP19 by H&E staining based microscopic analysis; assay type: organism-based; settings: in vivo, 336 h, time 14 day
Tubulin [6] = target: Tubulin (Sus scrofa, UniProt P02554+P02550); assay: (§1) Inhibition of pig brain tubulin polymerization in the presence of GTP by spectrophotometric analysis; assay type: tissue-based
Tubulin (Sus scrofa) = Tubulin (Sus scrofa) (UniProt P02554+P02550); assay: as §1; assay type: tissue-based
Tubulin (Sus scrofa), sequence (P02550 whole entry, looked up): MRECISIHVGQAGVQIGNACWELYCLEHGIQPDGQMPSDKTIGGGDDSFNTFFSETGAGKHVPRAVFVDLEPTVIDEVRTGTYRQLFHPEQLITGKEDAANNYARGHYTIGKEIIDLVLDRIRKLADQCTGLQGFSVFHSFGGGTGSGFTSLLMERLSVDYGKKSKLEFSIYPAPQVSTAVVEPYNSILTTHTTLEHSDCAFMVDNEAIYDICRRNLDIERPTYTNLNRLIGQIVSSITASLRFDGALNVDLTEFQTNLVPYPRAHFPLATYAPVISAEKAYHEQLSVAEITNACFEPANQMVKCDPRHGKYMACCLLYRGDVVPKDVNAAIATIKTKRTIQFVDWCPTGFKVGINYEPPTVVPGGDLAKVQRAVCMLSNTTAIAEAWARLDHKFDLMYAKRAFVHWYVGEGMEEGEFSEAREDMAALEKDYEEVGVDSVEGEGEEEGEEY
Tubulin (Sus scrofa), sequence (P02554 whole entry, looked up): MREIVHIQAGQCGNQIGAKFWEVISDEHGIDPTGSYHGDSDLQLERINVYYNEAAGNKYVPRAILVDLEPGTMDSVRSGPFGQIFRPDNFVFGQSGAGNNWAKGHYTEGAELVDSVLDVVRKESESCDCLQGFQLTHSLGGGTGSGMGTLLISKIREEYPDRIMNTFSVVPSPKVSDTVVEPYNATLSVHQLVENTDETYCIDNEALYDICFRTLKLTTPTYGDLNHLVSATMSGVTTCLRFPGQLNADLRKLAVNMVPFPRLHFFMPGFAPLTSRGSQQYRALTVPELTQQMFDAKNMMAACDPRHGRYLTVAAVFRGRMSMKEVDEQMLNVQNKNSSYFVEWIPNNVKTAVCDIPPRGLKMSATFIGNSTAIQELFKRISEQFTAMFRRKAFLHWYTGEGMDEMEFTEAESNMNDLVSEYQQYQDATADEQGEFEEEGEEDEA

[7] = Toxicity in C57 mouse implanted with mouse B16-F10 cells assessed as body weight loss at 2.5 mg/kg, ip administered every day for 14 days in the presence of NP19; assay type: organism-based; settings: in vivo, 336 h, time 14 day
HepG2 [8] = assay: Induction of apoptosis in human HepG2 cells assessed as early apoptotic cells at 0.5 nM incubated for 48 hrs by Annexin V-FITC/PI staining based flow cytometric analysis (reference value: 7.01 %); assay type: functional
B16-F10 [9] = assay: Antitumor immunity in C57 mouse implanted with mouse B16-F10 cells assessed as increase in CD3+ CD8+ cytotoxic T cells in tumor at 5 mg/kg, ip administered every day for 14 days by flow cytometric analysis (reference value: 0.340%); assay type: functional; settings: time 14 day
Tubulin [10] = assay: Binding affinity to tubulin (unknown origin) assessed as affinity constant by SPR analysis; assay type: protein-complex assay, Homo sapiens
[11] = Acute toxicity in C57 mouse assessed as survival rate at 40.96 mg/kg, po administered daily for 14 days relative to control; assay type: organism-based; settings: in vivo, time 14 day, read-out: Activity
HeLa = assay: Antiproliferative activity against human HeLa cells assessed as inhibition of cell proliferation incubated for 48 hrs by MTT assay; assay type: functional, cell-based
HUVEC = assay: Disruption of vasculature in HUVEC cells assessed as interruption of capillary like networks incubated for 6 hrs by phase contrast microscopic analysis; assay type: functional, cell-based; settings: Homo sapiens, dose 0.5-5 nM
[12] = Apparent volume of distribution in Sprague-Dawley rat at 2 mg/kg, iv measured upto 12 hrs by UPLC-MS/ESI analysis; assay type: ADME, organism-based; settings: in vivo, read-out: Vz
HepG2 [13] = assay: Cell cycle arrest in human HepG2 cells assessed as accumulation of cells at […] at 5 nM incubated for 48 hrs by RNaseA/PI staining based flow cytometric analysis (reference value: 23.81%); assay type: functional
HepG2 [14] = assay: Inhibition of colony formation in human HepG2 cells incubated for 24 hrs by crystal violet staining based analysis; assay type: functional, cell-based; settings: dose 0.5-5 nM
HepG2 [15] = assay: Induction of apoptosis in human HepG2 cells assessed as necrotic cells at 5 nM incubated for 48 hrs by Annexin V-FITC/PI staining based flow cytometric analysis (reference value: 0.443%); assay type: functional
HepG2 [16] = assay: Induction of apoptosis in human HepG2 cells assessed as viable cells at 5 nM incubated for 48 hrs by Annexin V-FITC/PI staining based flow cytometric analysis (reference value: 87.6%); assay type: functional; settings: read-out: Activity
Tubulin (Homo sapiens) = Tubulin (Homo sapiens) (UniProt P68371+Q9H4B7+P0DPH7+P68366+Q13509+Q71U36+P04350+Q3ZCM7+P07437+P68363+Q9BQE3+Q6PEY2+Q13885+Q9BVA1+Q9BUF5); assay: Disruption of microtubule network in human HepG2 cells cytosol incubated for 12 hrs by DAPI staining based fluorescence microscopic analysis; assay type: subcellular; settings: dose 0.5-5 nM
[17] = AUC (0 to t) in Sprague-Dawley rat at 20 mg/kg, po measured upto 12 hrs by UPLC-MS/ESI analysis; assay type: ADME, organism-based; set-up: time < 12 hrs, dose 20 mg/kg, route po; settings: in vivo
[18] = Acute toxicity in C57 mouse assessed as survival rate at 51.2 mg/kg, po administered daily for 14 days relative to control; assay type: organism-based; settings: in vivo, time 14 day, read-out: Activity
B16-F10 [19] = assay: Antiproliferative activity against mouse B16-F10 cells assessed as inhibition of cell proliferation incubated for 48 hrs by MTT assay; assay type: functional, cell-based; settings: B16-F10, 48 h
[20] = Oral bioavailability in Sprague-Dawley rat at 20 mg/kg measured upto 12 hrs by UPLC-MS/ESI analysis; assay type: ADME, organism-based; settings: in vivo
HepG2 [21] = assay: Cell cycle arrest in human HepG2 cells assessed as accumulation of cells at S phase at 0.5 nM incubated for 48 hrs by RNaseA/PI staining based flow cytometric analysis (reference value: 23.81%); assay type: functional
HepG2 [22] = assay: Antimigratory activity in human HepG2 cells assessed as reduction in recovery area at 0.5 nM incubated for 24 hrs by wound healing assay (reference value: 65.84%); assay type: functional; set-up: scale not given: the % may be the effect or the level left
HepG2 [23] = assay: Cell cycle arrest in human HepG2 cells assessed as accumulation of cells at S phase at 1 nM incubated for 48 hrs by RNaseA/PI staining based flow cytometric analysis (reference value: 23.81%); assay type: functional
[24] = Cmax in Sprague-Dawley rat at 2 mg/kg, iv measured upto 12 hrs by UPLC-MS/ESI analysis; assay type: ADME, organism-based; set-up: dose 2 mg/kg, time < 12 hrs, route iv; settings: in vivo
[25] = Cmax in Sprague-Dawley rat at 20 mg/kg, po measured upto 12 hrs by UPLC-MS/ESI analysis; assay type: ADME, organism-based; set-up: time < 12 hrs, dose 20 mg/kg, route po; settings: in vivo
MCF7 = assay: Antiproliferative activity against human MCF7 cells assessed as inhibition of cell proliferation incubated for 48 hrs by MTT assay; assay type: functional, cell-based; settings: MCF7, 48 h
HepG2 [26] = assay: Induction of apoptosis in human HepG2 cells assessed as late apoptotic cells at 0.5 nM incubated for 48 hrs by Annexin V-FITC/PI staining based flow cytometric analysis (reference value: 4.96 %); assay type: functional
[27] = Apparent volume of distribution in Sprague-Dawley rat at 20 mg/kg, po measured upto 12 hrs by UPLC-MS/ESI analysis; assay type: ADME, organism-based; settings: in vivo
[28] = Tmax in Sprague-Dawley rat at 2 mg/kg, iv measured upto 12 hrs by UPLC-MS/ESI analysis; assay type: ADME, organism-based; settings: in vivo
HepG2 [29] = assay: Antiproliferative activity against human HepG2 cells assessed as inhibition of cell proliferation incubated for 48 hrs by MTT assay; assay type: functional, cell-based; settings: HepG2, 48 h
B16-F10 [30] = assay: Antitumor immunity in C57 mouse implanted with mouse B16-F10 cells assessed as increase in CD3+ CD4+ helper T cells in tumor at 2.5 mg/kg, ip administered every day for 14 days in the presence of NP19 by flow cytometric analysis (reference value: 0.332%); assay type: functional; settings: time 14 day
[31] = Half-life in Sprague-Dawley rat at 2 mg/kg, iv measured upto 12 hrs by UPLC-MS/ESI analysis; assay type: ADME, organism-based; settings: in vivo

`COc1cc(-c2nccc3[nH]c(-c4cccc5c4ccn5C)nc23)cc(OC)c1OC` showed a survival at 336 h [1] of 20%, an Activity (B16-F10 [2]) of 3.34% and an Activity (HepG2 [3]) of 83.1%. For the same molecule, the Activity (HepG2 [4]) was 41.37%, the Activity [5] was “Non-Toxic” and the IC50 (Tubulin [6]) was 1010 nM. For the same molecule, the inhibition (Tubulin (Sus scrofa)) was “Dose-Dependent Effect”, the Activity [7] was “Non-Toxic” and the Activity (HepG2 [8]) was 8.59%. For the same molecule, the Activity (B16-F10 [9]) was 0.923%, the Kd (Tubulin [10]) was 18300 nM and the survival at 336 h [11] was 100%. The IC50 (HeLa) was 9 nM, the Activity (HUVEC) was “Dose-Dependent Effect” and the Vd [12] was 1.08 L/kg. For the same molecule, the Activity (HepG2 [13]) was 22.8%, the inhibition (HepG2 [14]) was “Dose-Dependent Effect” and the Activity (HepG2 [15]) was 0.201%. The viability at 0.005 µM (HepG2 [16]) was 11%, the Activity (Tubulin (Homo sapiens)) was “Dose-Dependent Effect” and the AUC(0-t) at 12 h [17] was 3330 ng·h/mL. For the same molecule, the survival at 336 h [18] was 90%, the IC50 (B16-F10 [19]) was 2 nM and the bioavailability [20] was 11%. It also gave an Activity (HepG2 [21]) of 27.34%, an Activity (HepG2 [22]) of 42.2% and an Activity (HepG2 [23]) of 20.35%. It also gave a Cmax [24] of 1730 ng/mL, a Cmax [25] of 879 ng/mL and an IC50 (MCF7) of 6 nM. For the same molecule, the Activity (HepG2 [26]) was 6.41%, the Vz [27] was 16.84 L/kg and the Tmax [28] was 4.98 min. It also gave an IC50 (HepG2 [29]) of 1 nM, an Activity (B16-F10 [30]) of 2.35% and a half-life [31] of 64.8 min.
